The source of these data is patent US11001588B2, “Activating pyruvate kinase R and mutants thereof” (FORMA Therapeutics, Inc., priority 2018, dated 2021).

The target of one test is PKR(R510Q) (Homo sapiens, UniProt P30613, R510Q). In words: Luminescence Biochemical Assay (Kinase Glo Plus), PKR R510Q. The settings on record: without FBP; for AC50: read-out: D—AC50 LUM KGP woFBP AC50 μM gmean. As for the experimental part: (§1) In some embodiments, a PKR Activating Compound refers to a compound having one or more characteristics when tested according to the following Luminescence Assay Protocol of Example 3 performed with wild type (wt) PKR and/or any one or more of G332S mutant form of PKR or R510Q mutant form of PKR: (1) an AC50 value of less than 40 μM (e.g., compounds with AC50 values of “+”, “++”, or “+++” in Table 2); (2) a maximum % Fold (MAX % Fold) value of greater than 75%; and/or (3) a % Fold value at 1.54 μM compound concentration (% Fold@1.54 μM) of at least 75%. In some embodiments, a PKR Activating Compound can have: (1) an AC50 value of less than 0.1 μM (e.g., compounds with AC50 values of “+++” in Table 2), 0.1-1.0 μM (e.g., compounds with AC50 values of “++” in Table 2), or 1.01-40 μM (e.g., compounds with AC50 values of “+” in Table 2); (2) a MAX % Fold of 75%-250%, 250-500%, or 75%-500%; and/or (3) a % Fold@1.54 μM of 75%-250%, 250-500%, or 75%-500%. In some embodiments, a PKR Activating Compound has (1) an AC50 value of less than 1.0 μM; (2) a MAX % Fold of 75%-500%; and/or (3) a % Fold@1.54 μM of 75%-500%.
(§2) The phosphorylation of Adenosine-5′-diphosphate (ADP) by various mutants of PKR was determined by the Kinase Glo Plus Assay (Promega) in the presence or absence of FBP [D-Fructose-1,6-diphosphate; BOC Sciences, CAS: 81028-91-3] as follows. Unless otherwise indicated, all reagents were purchased from Sigma-Aldrich. All reagents were prepared in buffer containing 50 mM Tris-HCl, 100 mM KCl, 5 mM MgCl2, and 0.01% Triton X100, 0.03% BSA, and 1 mM DTT. Enzyme and PEP [Phospho(enol) pyruvic acid] were added at 2× to all wells of an assay-ready plate containing serial dilutions of test compounds or DMSO vehicle. Final enzyme concentrations for PKR(wt), PKR(R510Q), and PKR(G332S) were 0.8 nM, 0.8 nM, and 10 nM respectively. Final PEP concentration was 100 μM. The Enzyme/PEP mixture was incubated with compounds for 30 minutes at RT before the assay was initiated with the addition of 2×ADP [Adenosine-5′-diphosphate] and KinaseGloPlus. Final concentration of ADP was 100 μM. […] For assays containing FBP, that reagent is added at 30 μM upon reaction initiation. Reactions were allowed to progress for 45 minutes at RT until luminescence was recorded by the BMG PHERAstar FS Multilabel Reader. All compounds were tested in triplicate at concentrations ranging from 42.5 μM to 2.2 nM in 0.83% DMSO.
Luminescence values were converted to % Fold increase by normalizing to the average of the DMSO control and multiplying by 100. Max, min, slope and AC50 were determined by the standard four parameter fit algorithm of ActivityBase XE Runner. Compounds were evaluated with three parameters—AC50, MAX % Fold, and % Fold@1.54 μM (FIG. 1). The AC50 value for a compound is the concentration (μM) corresponding to the midway between the maximum and minimum values of the four parameter logistic curve fit (i.e., at which the % fold increase along the four parameter logistic curve fit is halfway between MAX % Fold and MIN % Fold (% Fold Midpoint)), MAX % Fold is the highest fold increase observed at any concentration of compound, and % Fold@1.54 μM is the fold increase at a compound concentration of 1.54 μM. The parameter % Fold@1.54 μM was selected to capture elements of both the AC50 and MAX % Fold and to provide a ranking based on both potency and effect. […]

A further test addresses PKR(G332S) (Homo sapiens, UniProt P30613, G332S). In words: Luminescence Biochemical Assay (Kinase Glo Plus), PKR G332S. Particulars: with FBP (30 μM); for AC50: read-out: A—AC50 LUM KGP FBP AC50 μM gmean. On the procedure:
as §1, §2
Luminescence values were converted to % Fold increase by normalizing to the average of the DMSO control and multiplying by 100. Max, min, slope and AC50 were determined by the standard four parameter fit algorithm of ActivityBase XE Runner. Compounds were evaluated with three parameters—AC50, MAX % Fold, and % Fold@1.54 μM (FIG. 1). […]

For the next test, the target named is PKR(wt) (Homo sapiens, UniProt P30613). Put plainly: Luminescence Biochemical Assay (Kinase Glo Plus), wild type PKR. Particulars: without FBP; for AC50: read-out: G—AC50 LUM KGP woFBP AC50 μM gmean. On the procedure: as §1, §2
Luminescence values were converted to % Fold increase by normalizing to the average of the DMSO control and multiplying by 100. Max, min, slope and AC50 were determined by the standard four parameter fit algorithm of ActivityBase XE Runner. Compounds were evaluated with three parameters—AC50, MAX % Fold, and % Fold@1.54 μM (FIG. 1). The AC50 value for a compound is the concentration (μM) corresponding to the midway between the maximum and minimum values of the four parameter logistic curve fit (i.e., at which the % fold increase along the four parameter logistic curve fit is halfway between MAX % Fold and MIN % Fold (% Fold Midpoint)), MAX % Fold is the highest fold increase observed at any concentration of compound, and % Fold@1.54 μM is the fold increase at a compound concentration of 1.54 μM. The parameter % Fold@1.54 μM was selected to capture elements of both the AC50 and MAX % Fold and to provide a ranking based on both potency and effect. The compound concentration of 1.54 μM was chosen as one that can optimally differentiate the set of compounds based on the range of activities observed.
As set forth in Table 2 below, AC50 values (columns A, D, G) are defined as follows: ≤0.1 μM (+++); >0.1 μM and ≤1.0 μM (++); >1.0 μM and ≤40 μM (+); >40 μM (0). Max % FOLD values (columns B, E, H) are defined as follows: ≤75% (+); >75% and ≤250% (++); >250% and ≤500% (+++). % Fold@1.54 μM values (columns C, F, J) are defined as follows: ≤75% (+); >75% and ≤250% (++); >250% and ≤500% (+++).

PKR(R510Q), sequence (P30613 whole entry R510Q): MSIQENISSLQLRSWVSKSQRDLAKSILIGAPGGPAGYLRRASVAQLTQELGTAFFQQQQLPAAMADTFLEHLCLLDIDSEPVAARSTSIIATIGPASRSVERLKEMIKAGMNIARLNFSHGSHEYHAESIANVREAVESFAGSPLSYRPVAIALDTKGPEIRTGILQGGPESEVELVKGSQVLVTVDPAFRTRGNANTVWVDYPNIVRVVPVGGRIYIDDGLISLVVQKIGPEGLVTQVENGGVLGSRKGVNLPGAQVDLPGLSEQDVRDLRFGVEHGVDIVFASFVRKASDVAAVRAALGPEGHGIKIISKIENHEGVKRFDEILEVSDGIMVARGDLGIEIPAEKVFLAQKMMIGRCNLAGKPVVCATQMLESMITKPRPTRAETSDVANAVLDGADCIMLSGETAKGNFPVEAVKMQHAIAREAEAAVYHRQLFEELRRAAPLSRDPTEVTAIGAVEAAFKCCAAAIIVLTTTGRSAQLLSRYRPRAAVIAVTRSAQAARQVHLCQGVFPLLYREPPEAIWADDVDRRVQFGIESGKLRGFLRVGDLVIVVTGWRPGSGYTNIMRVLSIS
PKR(G332S), sequence (P30613 whole entry G332S): as the sequence (P30613 whole entry R510Q) above, with G332S, Q510R counted along it
PKR(wt), sequence (P30613 whole entry): as the sequence (P30613 whole entry R510Q) above, with Q510R counted along it

Consider `O=C([C@H](O)c1ccccc1)N1CC2=C(C1)CN(S(=O)(=O)c1ccccn1)C2` [Compound 1, (2R)-2-hydroxy-2-phenyl-1-[5-(pyridine-2-sulfonyl)-1H,2H,3H,4H, 5H,6H-pyrrolo[3,4-c]pyrrol-2-yl]ethan-1-one], for which, on PKR(R510Q), the “E—AC50 LUM KGP woFBP MAX % FOLD mean” value is “+++ (>250% and ≤500% (+++))”. The “F—AC50 LUM KGP woFBP % Fold@1.54 μM mean” value at PKR(R510Q) (1.54 μM compound) is “++ (>75% and ≤250% (++))”. Besides, the “B—AC50 LUM KGP FBP MAX % FOLD mean” value on PKR(G332S) was “++ (>75% and ≤250% (++))”. Besides, the “C—AC50 LUM KGP FBP % Fold@1.54 μM mean” value on PKR(G332S) (1.54 μM compound) was “++ (>75% and ≤250% (++))”. Further, at PKR(wt), the “H—AC50 LUM KGP woFBP MAX % FOLD mean” value was “++ (>75% and ≤250% (++))”; the AC50 is no more than 0.1 µM. At PKR(wt) (1.54 μM compound), the “J—AC50 LUM KGP woFBP % Fold@1.54 μM mean” value was “++ (>75% and ≤250% (++))”.
Turning to `Cc1nc2ccc(S(=O)(=O)N3CC4=C(CN(C(=O)Cc5ccc(Cl)cc5)C4)C3)cc2s1` [Compound 24], the AC50 on PKR(R510Q) is 1 to 40 µM.
As for `C[C@@H](C(=O)N1CC2=C(C1)CN(S(=O)(=O)c1c[nH]c3c(Cl)nccc13)C2)c1ccccc1` [Compound 25], the AC50 on PKR(R510Q) and on PKR(G332S) was 1 to 40 µM throughout.
`CN1CCOc2ccc(S(=O)(=O)N3CC4=C(CN(C(=O)CC5CCOCC5)C4)C3)cc21` [Compound 26]: the AC50 at PKR(wt) was in the range of 1 to 40 µM.
On the same count and under the same terms, as for `Cc1nn(C(C)C(=O)N2CC3=C(C2)CN(S(=O)(=O)c2ccc4occc4c2)C3)cc1Cl` (centres unmarked) [Compound 27], the figure is 1 to 40 µM.
On to `O=C(CC1CCS(=O)(=O)CC1)N1CC2=C(C1)CN(S(=O)(=O)c1ccc3occc3c1)C2` [Compound 28], for which, on PKR(wt), the AC50 lay in the range of 1 to 40 µM.
`CC(=O)N1CCOc2ccc(S(=O)(=O)N3CC4=C(CN(C(=O)C(C)c5ccc(F)cc5)C4)C3)cc21` (centres unmarked) [Compound 29]: on PKR(wt), the AC50 was 1 to 40 µM.
In the case of `CN1CCOc2ccc(S(=O)(=O)N3CC4=C(CN(C(=O)C5(c6cccc(F)c6)CC5)C4)C3)cc21` [Compound 30], the AC50 on PKR(R510Q), at PKR(G332S) and on PKR(wt) was 1 to 40 µM throughout.
